# Source: ChEMBL document CHEMBL1201862, “PubChem BioAssay data set” (2004)
#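 Each compound was tested at five concentrations against cells in 96-well plates for 48 hours. At the GI50, growth is halved.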 Active and inactive are the calls of the source. Rule as the data show it: active = GI50 up to about 1.1 µM and inactive = higher.
# Tests used:
# Experiment in all cases: NCI tumour cell line growth inhibition, 48 h
# [1] = test system: 786-0
# [2] = test system: A549
# [3] = test system: DLD-1
# [4] = test system: HCT-15
# [5] = test system: HT-29
# [6] = test system: M14
# [7] = test system: OVCAR-3
# [8] = test system: SF-295
# [9] = test system: SF-539
# [10] = test system: SK-MEL-28
# [11] = test system: SK-MEL-5
# [12] = test system: SK-OV-3
# [13] = test system: SN12C
# [14] = test system: UACC-62
# [15] = test system: UO-31
# [16] = test system: SNB-75
# [17] = test system: UACC-257
# [18] = test system: DU-145
# [19] = test system: MDA-MB-435
# [20] = test system: NCI/ADR-RES
Compound,GI50 [1],GI50 [2],GI50 [3],GI50 [4],GI50 [5],GI50 [6],GI50 [7],GI50 [8],GI50 [9],GI50 [10],GI50 [11],GI50 [12],GI50 [13],GI50 [14],GI50 [15],GI50 [16],GI50 [17],GI50 [18],GI50 [19],GI50 [20]
COC(=O)CCC(=O)N1Cc2cc(C)ccc2N(C(=O)CCC(=O)OC)Cc2cc(C)ccc21,> 100 µM (inactive),> 100 µM (inactive),> 100 µM (inactive),> 100 µM,> 100 µM (inactive),> 100 µM (inactive),> 100 µM (inactive),> 100 µM (inactive),> 100 µM (inactive),> 100 µM (inactive),> 100 µM (inactive),> 100 µM (inactive),> 100 µM (inactive),> 100 µM (inactive),> 100 µM (inactive),,,,,
Fc1cccc(C2SCc3nc4ccccc4n32)c1 (centres undefined),> 100 µM (inactive),43.1 µM (inactive),43.8 µM (inactive),,68.7 µM (inactive),,36.2 µM (inactive),48.3 µM (inactive),> 100 µM (inactive),> 10 µM (inactive),12.7 µM (inactive),50.8 µM (inactive),50.5 µM (inactive),40.1 µM (inactive),33.8 µM (inactive),36.4 µM (inactive),17.6 µM (inactive),,,
Cc1ccc2sc3cc(=O)cc(C)c-3nc2c1,55.1 µM (inactive),36.7 µM (inactive),76 µM (inactive),40.2 µM,> 100 µM (inactive),> 100 µM (inactive),57.3 µM (inactive),33.1 µM (inactive),37.9 µM (inactive),> 100 µM (inactive),16.6 µM (inactive),> 100 µM (inactive),60.4 µM (inactive),14.3 µM (inactive),26.1 µM (inactive),> 100 µM (inactive),74.3 µM (inactive),,,
Cc1[nH]c2ccccc2c1/C=C/c1c(C)[nH]c2ccccc12,> 100 µM (inactive),> 100 µM (inactive),> 100 µM (inactive),> 100 µM,> 100 µM (inactive),> 100 µM (inactive),> 100 µM (inactive),> 100 µM (inactive),> 100 µM (inactive),> 100 µM (inactive),> 100 µM (inactive),> 100 µM (inactive),,> 100 µM (inactive),> 100 µM (inactive),31 µM (inactive),> 100 µM (inactive),,,
CCOC(=O)C(C)Sc1nnc(COc2ccc(Cl)cc2)n1-c1ccccc1 (centres undefined),29.6 µM (inactive),43.7 µM (inactive),19.8 µM (inactive),14.7 µM,18 µM (inactive),16.9 µM (inactive),17.4 µM (inactive),22 µM (inactive),21.4 µM (inactive),21.3 µM (inactive),21.4 µM (inactive),36.1 µM (inactive),17.9 µM (inactive),17.3 µM (inactive),14.7 µM (inactive),30.6 µM (inactive),23.6 µM (inactive),,,
N#C/C(=C1\OC(=O)C(c2ccc(Br)cc2)=C1O)c1ccc(Br)cc1,14.7 µM (inactive),18 µM (inactive),15.8 µM (inactive),,17.3 µM (inactive),14.8 µM (inactive),14.9 µM (inactive),17.7 µM (inactive),16.1 µM (inactive),17.2 µM (inactive),,18.5 µM (inactive),11.2 µM (inactive),11.6 µM (inactive),15.1 µM (inactive),17.6 µM (inactive),15.3 µM (inactive),,,
O=Cc1ccc2c(c1I)OCO2,> 100 µM (inactive),> 100 µM (inactive),> 100 µM (inactive),> 100 µM,> 100 µM (inactive),> 100 µM (inactive),> 100 µM (inactive),> 100 µM (inactive),> 100 µM (inactive),,> 100 µM (inactive),> 100 µM (inactive),> 100 µM (inactive),> 100 µM (inactive),> 100 µM (inactive),> 100 µM (inactive),> 100 µM (inactive),,,
Cc1ccc(S(=O)(=O)N/N=C/C(C)C)cc1,> 100 µM (inactive),> 100 µM (inactive),> 100 µM (inactive),> 100 µM,> 100 µM (inactive),> 100 µM (inactive),> 100 µM (inactive),> 100 µM (inactive),> 100 µM (inactive),,> 100 µM (inactive),> 100 µM (inactive),> 100 µM (inactive),> 100 µM (inactive),> 100 µM (inactive),70.6 µM (inactive),> 100 µM (inactive),,,
COc1ccc(CN2CCC/C=C/CC(Cl)(Cl)C2=O)cc1,35.8 µM (inactive),35 µM (inactive),31.6 µM (inactive),34.2 µM,35.8 µM (inactive),20.1 µM (inactive),34.8 µM (inactive),20.5 µM (inactive),33.6 µM (inactive),46.7 µM (inactive),18 µM (inactive),27.9 µM (inactive),37.9 µM (inactive),43 µM (inactive),21.2 µM (inactive),15.1 µM (inactive),,,,
COc1ccc(-c2cc(C(=O)Nc3cc(C(F)(F)F)cc(C(F)(F)F)c3)c3ccccc3n2)cc1,11.7 µM (inactive),4.71 µM (inactive),11.4 µM (inactive),11.4 µM,9.06 µM (inactive),10.2 µM (inactive),4.93 µM (inactive),10.3 µM (inactive),12.3 µM (inactive),27.7 µM (inactive),18 µM (inactive),,10.6 µM (inactive),21.6 µM (inactive),24.5 µM (inactive),13.7 µM (inactive),17.6 µM (inactive),,,
COc1cc2c(c(OC)c1OC)CCNC2C1=C(O)COC1=O (centres undefined),> 100 µM (inactive),> 100 µM (inactive),> 100 µM (inactive),> 100 µM,> 100 µM (inactive),> 100 µM (inactive),,> 100 µM (inactive),> 100 µM (inactive),,95.1 µM (inactive),> 100 µM (inactive),> 100 µM (inactive),55.6 µM (inactive),> 100 µM (inactive),> 100 µM (inactive),> 100 µM (inactive),,,
Nc1c(-c2cn(Cc3ccccc3)c3ccccc23)[n+]([O-])c2ccccc2[n+]1[O-],30.7 µM (inactive),30.8 µM (inactive),32.7 µM (inactive),27.2 µM,27.2 µM (inactive),25.4 µM (inactive),19.8 µM (inactive),21.9 µM (inactive),,25.4 µM (inactive),21.9 µM (inactive),24.8 µM (inactive),31.8 µM (inactive),23.6 µM (inactive),10.2 µM (inactive),16.4 µM (inactive),12.8 µM (inactive),,,
CCOC(=O)Cn1c(=O)[nH]c(=O)c2[nH]cnc21,> 100 µM (inactive),> 100 µM (inactive),> 100 µM (inactive),> 100 µM,> 100 µM (inactive),> 100 µM (inactive),> 100 µM (inactive),,> 100 µM (inactive),> 100 µM (inactive),> 100 µM (inactive),> 100 µM (inactive),> 100 µM (inactive),> 100 µM (inactive),> 100 µM (inactive),> 100 µM (inactive),> 100 µM (inactive),,,
C=CSCCC(N)C(=O)O (centres undefined),> 100 µM (inactive),> 100 µM (inactive),> 100 µM (inactive),> 100 µM,> 100 µM (inactive),> 100 µM (inactive),> 100 µM (inactive),> 100 µM (inactive),> 100 µM (inactive),> 100 µM (inactive),> 100 µM (inactive),,> 100 µM (inactive),> 100 µM (inactive),> 100 µM (inactive),> 100 µM (inactive),> 100 µM (inactive),,,
CCOC(=O)CCC(NC(=O)c1ccc(Oc2nc3c(N)cc(C(F)(F)F)cc3nc2-c2ccccc2)cc1)C(=O)OCC (centres undefined),3.42 µM (inactive),7.78 µM (inactive),,> 100 µM,2.43 µM (inactive),47 µM (inactive),3.53 µM (inactive),11 µM (inactive),1.67 µM (inactive),> 100 µM (inactive),17.6 µM (inactive),13.5 µM (inactive),45.9 µM (inactive),> 46.3 µM (inactive),70 µM (inactive),5.05 µM (inactive),> 27.9 µM (inactive),17.3 µM (inactive),59.8 µM (inactive),1.34 µM (inactive)
CCN1CN(c2ccccc2)C2(CCN(CCCSc3ccc(F)cc3)CC2)C1=O,13.7 µM (inactive),6.12 µM (inactive),,11 µM,3.36 µM (inactive),6.75 µM (inactive),13.9 µM (inactive),13 µM (inactive),9.4 µM (inactive),17.3 µM (inactive),2.82 µM (inactive),15.8 µM (inactive),8.47 µM (inactive),15.1 µM (inactive),5.97 µM (inactive),16.4 µM (inactive),6.11 µM (inactive),4.65 µM (inactive),12.8 µM (inactive),12.2 µM (inactive)
C=C(C)[C@@H]1CC[C@]2(C(=O)O)CC[C@]3(C)[C@H](CC[C@@H]4[C@@]5(C)CC[C@H](O)C(C)(C)[C@@H]5CC[C@]43C)[C@@H]12 [BETULINIC ACID],10.2 µM (inactive),4.88 µM (inactive),,8.67 µM,8.24 µM (inactive),10.3 µM (inactive),2.61 µM (inactive),7.71 µM (inactive),4.03 µM (inactive),17.1 µM (inactive),4.19 µM (inactive),15.9 µM (inactive),10.8 µM (inactive),14.1 µM (inactive),11 µM (inactive),8.87 µM (inactive),6.03 µM (inactive),9.71 µM (inactive),13.7 µM (inactive),7.23 µM (inactive)
